Tests used:
[1] = 1 week stability of primary screen salts at 40° C./75% RH and 80° C. (open vials, XRPD); assay type: physicochemical
Description: (open vials). TGA was carried out after the stability studies for samples containing sufficient material.

[2] = Salt disproportionation study (slurry in deionized water); assay type: physicochemical; conditions: deionized water slurry
Description: The pH of the supernatant was also monitored.
The hydrobromide salt was slurried in deionised water at ambient temperature (ca. 22° C.). […] The pH of the supernatant was also monitored.

[3] = Dog PK Study 2 (gastric pH adjustment, food effect); assay type: in vivo, beagle dogs; conditions: dogs, oral, 30 mg/kg QD, both low and high gastric pH conditions
Description: Compound 1 free base and compound 2, as the Form I monohydrobromide (HBr) salt, were evaluated in a cross-over dog PK study in which male dogs were pre-treated with either pentagastrin (to decrease gastric pH) or famotidine (to increase gastric pH) prior to oral dosing to control gastric pH. In addition, the effect of food on the systemic exposure to compound 1 was also evaluated in dogs receiving Form I HBr with pentagastrin pre-treatment. Compound 1 free base capsule consisted of compound 1 free base in Vitamin E TPGS and PEG 400 filled into a capsule. The Form I hydrobromide salt capsule consisted of Form I HBr alone filled into a capsule.
There was a minimum 6-day washout between dosing. On the day of dosing under fed condition, dogs were given 60 gram of a high fat diet (Harlan Teklad 2027C) and allowed to consume all of the food within 15-20 minutes. The animals were given a 10-minute rest period and then the capsule doses were administered. Plasma samples were collected at pre-dose and 0.5, 1, 2, 4, 6, 8, 12 and 24 hours post dose.

[4] = Dog PK Study 1 (cross-over, fasted); assay type: in vivo, beagle dogs; conditions: fasted dogs, oral, 24.5-28.5 mg/kg QD
Description: Compound 1 free base and compound 2, as the Form I monohydrobromide (HBr) salt, were evaluated in a cross-over dog PK study. Compound 1 free base capsule consisted of compound 1 free base in Vitamin E TPGS and PEG 400 filled into a capsule. The Form I hydrobromide salt capsule consisted of Form I HBr alone filled into a capsule.
Compound 1 free base capsule and Form I HBr capsule were dosed orally at 28.5 and 24.5 mg/kg (as active) QD, respectively, to three fasted male non-naïve beagle dogs (body weight range: 10.1-10.8 kg) with a 5-day washout period. Approximately 5 mL of tap water was orally administered to encourage swallowing and ensure delivery of capsules into the stomach. Plasma samples were collected at pre-dose and 0.5, 1, 2, 4, 6, 8, 12 and 24 hours post dose. The plasma concentrations of compound 1 were determined by a liquid chromatography-tandem mass spectrometry (LC/MS/MS) method.

Br.C=CC(=O)Nc1cccc(Nc2nc(Nc3ccc(N4CCN(C(C)=O)CC4)cc3OC)ncc2C(F)(F)F)c1 [Form I hydrobromide salt]
Stability 40° C./75% RH (open conditions) [1]: No form change, slight
Stability 80° C. (open conditions) [1]: No Form change.
pH of the supernatant ([2]; 1 hr): pH 1
pH of the supernatant ([2]; 24 hrs): pH 1
pH of the supernatant ([2]; 48 hrs): pH 1
compound 1 exposure compared to the free base form [3]: significantly higher
compound 1 exposure (AUC and Cmax) compared to the free base form [4]: significantly higher
